The text below walks through data of patent publication US10626368B2, “Method for inducing cerebral cortex neurons” (KYOTO UNIVERSITY, priority 2015, dated 2020).

The assay deals with ES cells or the iPS cells. In words: Sphere formation and Pax6 immunostaining after 18 days of suspension culture. The class given is cell-based, human. On the procedure: On the day before induction of differentiation, in order to separate the ES cells or the iPS cells, which had been cultured in a culture medium to which 10 μM Y-27632 (WAKO) had been added, from the SNL feeder cells, the SNL cells were removed with CTK and the remaining cells were then dissociated using Accumax (ICT). The cells were transferred on a 96-well plate (Lipidure-coat 96-well plate (NOF Corporation)) in an amount of 9×10^3 cells per well. Thereafter, the cells were subjected to a suspension culture in DMEM/F12 (WAKO) comprising 50 μM Y-27632 (WAKO), 10 μM SB43152 (Sigma), 10 ng/ml bFGF (Invitrogen), various types of Wnt inhibitors (DKK1 (R & D, 500 ng/ml), C59 (Cellagen Technology, 2-10 nM), XAV (Stemgent, 500 nM-2 μM) or IWP4 (Stemgent, 500 nM-2.5 μM)), LDN193189 (Stemgent), KSR (Invitrogen), 0.1 mM MEM non-essential amino acid (Invitrogen), 0.1 mM 2-mercaptoethanol (WAKO), and 2 mM L-Gln (Invitrogen) (initiation of differentiation induction, day 0). […] Furthermore, the expression levels of the Foxg1, Lhx2, Emx2 and CoupTF1 genes in the obtained spheres were measured according to a qPCR method (FIG. 4B). […]

Regarding `Cc1cc(-c2ccc(CC(=O)Nc3ccc(-c4cccnc4)cc3)cc2)ccn1` [C59], the “sphere formation in the suspension culture” value (1 μM C59, 18 days) is reported as “no spheres were formed”. The “Pax6-positive cells in spheres (immunostaining)” value (without C59, 2.5 nM and 10 nM C59, 18 days) is “positive cells were confirmed under all conditions”.
